{"source": "patent US8796323B2", "about": "“Defensin-like molecules as novel antimicrobial agents” (University of Maryland, Baltimore, priority 2010, dated 2014)", "key": {"[1]": {"assay": "ANTS/DPX leakage assay from large unilamellar vesicles", "experimental": "Large unilamellar vesicles (LUVs) with the low molecular weight fluorophore/quencher pair (ANTS/DPX) encapsulated were prepared using the standard extrusion method. Specifically, phospholipids were dissolved in chloroform at a desired molar ratio, dried as a film by solvent evaporation. After removal of residual solvent, the lipid film was hydrated in the fluorescent solution containing 5 mM HEPES, 12.5 mM ANTS, 45 mM DPX, and 20 mM NaCl, pH 7.0, freeze-thawed for 10 cycles and extruded 10 times through 0.4-μm polycarbonate membranes. LUVs were separated from unencapsulated materials by gel filtration chromatography using a Sepharose CL-4B column eluted with 5 mM HEPES, 100 mM NaCl, pH 7.4 (high-salt). For leakage assays in a low-salt buffer, purified vesicles were further diluted with 5 mM HEPES containing 10 mM NaCl, pH 7.4.\nLeakage of ANTS from LUVs, monitored on a LS-55 Perkin Elmer luminescence spectrometer, was characterized by an increase in fluorescence, which was quenched by DPX when encapsulated together inside liposomes (Ellens, H., et al., 1985, “H+- and Ca2+-induced fusion and destabilization of liposomes,” Biochemistry 24:3099-3106). 270 μl ANTS/DPX-encapsulated LUVs (in either high-salt or low-salt buffers) were added to each well of a 96-well plate to a final lipid concentration of 600 μM. 30 μl H2O was added to the first well of each row as a blank, and 30 μl 2.5% (v/v) Triton X-100 to the last (twelfth) well as the control for 100% leakage. Upon addition of 30 μl of a twofold dilution series of defensin, the fluorescence signal was recorded at 515 nm with an excitation wavelength of 353 nm, 10 nm bandwidths and a 390 nm cut-off filter in the emission path. Percent leakage is expressed as: % leakage=((Ft−F0)/(F100−F0))×100 where Ft is the fluorescence determined at different time points after addition of defensin, F0 is the background fluorescence of the “blank” cells, and F100 is the fluorescence of the control cells containing 0.25% Triton X-100. Lipid II Purification\nDefensins are believed to kill bacteria by permeabilizing the membrane, causing leakage of intracellular content and eventually cell lysis and death. The present inventors tested the ability of six human α-defensins to induce leakage of fluorophores encapsulated in LUVs (See FIG. 1). […] (A) At high salt concentration (5 mM HEPES, 100 mM NaCl, pH 7.4). (B) At low salt concentration (5 mM HEPES, 10 mM NaCl, pH 7.4). LUVs were 250 nm in diameter and 600 μM (phospholipids) in concentration.\n(A) Effects of surface charge on HNP1-induced leakage from LUVs of four different compositions: POPC (circle, surface charge=0), POPC/POPG=3:2 (square, surface charge=−0.4), POPC/POPG=2:3 (triangle, surface charge=−0.6), and POPG (diamond, surface charge=−1). (B) LUV (POPG:DPPC 1:1) leakage induced by L-HNP1 (circles) or D-HNP1 (squares). A two-fold dilution series of HNP1 peptides from 0.19 to 100 μg/ml was incubated with 600 μM LUVs for one hour before readings were taken. Error bars indicate the standard error in triplicate experiments."}, "[2]": {"tested_on": "Staphylococcus aureus ATCC 29213", "assay": "96-well turbidimetric antibacterial activity assay of HNP1, with or without Lipid II synthesis inhibitors", "assay_type": "cell-based", "experimental": "The antibacterial activity of HNP1 against Staphylococcus aureus ATCC 29213 was carried out in a 96-well turbidimetric assay essentially as described in Ericksen, B., et al., 2005, “Antibacterial activity and specificity of the six human {alpha}-defensins.” Lipid II levels in S. aureus were manipulated by the addition of three different inhibitors of cell wall synthesis: bacitracin (250 μg/ml), D-cycloserine (64 μg/ml) and fosfomycine (250 μg/ml). Bacterial cultures were pretreated with these compounds for 30 min under shaking at 37° C. […] Bacterial growth was monitored for 12 hours and data were analyzed as described.\nTo examine whether the observed interaction between HNP1 and Lipid II is functionally relevant in the environment of the membrane, the inventors determined the ability of HNP1 to kill S. aureus with altered levels of Lipid II. Three different inhibitors of cell wall synthesis, fosfomycine, D-cycloserine, and bacitracin, were used to reduce the lipid II levels in S. aureus cells. Bacitracin binds directly to undecaprenyl pyrophosphate, the portion of lipid II that remains in the membrane once GlcNAc-MurNAc is polymerized, and prevents its use in subsequent cycles of lipid II synthesis. Fosfomycine is an inhibitor of MurA, the enzyme responsible for the first step in peptidoglycan synthesis. D-Cycloserine inhibits both alanine racemase and D-Ala-D-Ala ligase, two enzymes required for the synthesis of the D-Ala-D-Ala dipeptide of lipid II. All three inhibitors thus block the synthesis of lipid II (Lunde, C. S., et al., 2009, “Telavancin disrupts the functional integrity of the bacterial membrane through targeted interaction with the cell wall precursor lipid II,” Antimicrob Agents Chemother 53:3375-3383.) S. aureus cells were exposed to each of the Lipid II synthesis inhibitors for 30 min and subsequently exposed to HNP1 at concentrations ranging from 256 to 1 μg/ml for 15 min (FIG. 4).\nSurvival curves of S. aureus ATCC 29213 exposed to HNP1 at concentrations varying two-fold from 1 to 256 μg/ml. […] Points scored as zero survival could not be plotted."}, "S. aureus": {"tested_on": "S. aureus", "conditions": "literature (Ericksen 2005; Wei 2009); cited from earlier work"}}, "note": "“Also recorded” adds a separate entry of the source."}
{"substance": "HNP1: α-defensin Human Neutrophil Peptide 1, chemically synthesized and folded", "values": [{"measurement": "leakage from LUVs, L- versus D-enantiomer", "setting": "[1]; DPPC/POPG (1:1) LUVs, FIG. 2B", "result": "equally efficiently"}, {"measurement": "HNP1-induced leakage from LUVs composed solely of neutral lipid POPC", "setting": "[1]; POPC LUVs, surface charge 0, 0.19 to 100 μg/ml, regardless of incubation time", "result": "resistant to the attack by HNP1 at all concentrations used"}, {"measurement": "HNP1-induced leakage from LUVs as POPG content increases", "setting": "[1]; POPC:POPG 1:0, 3:2, 2:3, 0:1, POPG 0, 40%, 60%, 100%", "result": "increasingly pronounced"}, {"measurement": "membrane activity (leakage of ANTS-DPX from POPG LUVs)", "setting": "[1]; POPG LUVs, panel of six human α-defensins, FIG. 1", "result": "reduced"}, {"measurement": "killing of S. aureus", "setting": "[2]; 15 min exposure to HNP1", "result": "efficiently killed S. aureus"}, {"measurement": "killing of S. aureus by HNP-1 after pre-treatment with Lipid II synthesis inhibitors, 2 hours exposure", "setting": "[2]; HNP-1 exposure 2 hours, data not shown", "result": "no difference in bacterial killing"}, {"measurement": "killing of S. aureus by HNP1 after pre-treatment with Lipid II synthesis inhibitors", "setting": "[2]; fosfomycine, D-cycloserine, bacitracin 30 min pre-treatment, HNP1 15 min", "result": "attenuated killing of S. aureus by HNP1 markedly"}, {"measurement": "bactericidal activity against S. aureus / Gram-positive bacteria", "setting": "S. aureus", "result": "potently bactericidal; also recorded: kills Gram-positive bacteria very efficiently"}]}
